Measured values as given in patent publication EP0317728A2, “Use of 9-(beta-D-arabinofuranosyl) adenine derivatives for the preparation of pharmaceutical compositions for the treatment of aids” (WARNER-LAMBERT COMPANY, priority 1987, dated 1989).

Legend:
Assay type in all cases: cell-based
HTLV-III/LAV [1] = assay: Inhibition of reverse transcriptase activity in culture medium of HTLV-III/LAV infected H9 cells; conditions: reverse transcriptase in the culture medium on day 10 post infection 50% that in drug-free control cultures, read-out: RT** 50% Inhibitory Concentrations
Procedure: (§1) The antiviral activity of the compounds of the present invention against the HTLV-III/LAV virus was evaluated by determining the degree of inhibition of cytopathic effect (CPE) and reverse transcriptase (RT) activity of the drug in a subline of H9 cells at various concentrations.
(§2) HTLV-III/LAV inoculum was standardized for reverse transcriptase (RT) activity using purified avian myeloblastosis viral RT (BRL Labs, Gaithersberg, MD) and used to infect polybrene treated H9 cells at 0.02 RT units of HTLV-III/LAV per 2 x 10⁶ cells. The virus was adsorbed for two hours at 37°C and then the cells were washed and resuspended in RPMI-10% fetal bovine serum at 2 x 10⁵ cells/ml and dispersed in 1-ml aliquots into 24-well plates.
Reverse transcriptase activity (RT) was measured using 1-ml culture aliquots which were clarified at 600 xg for 30 minutes, precipitated in 10% polyethylene glycol-0.13 M NaCl at 4°C for eighteen hours, and centrifuged at 600 xg for sixty minutes. The pellet was dissolved in glycerol-Tris buffer (50% glycerol, 25 mM Tris HCl, pH 7.5, 5 mM dithiothreitol, 15 mM KCl, 0.025% Triton-X, and 0.25 mM EDTA). […] Background counts were determined using poly dA oligo dT₁₂₋₁₈ as template and subtracted from the poly rA dT primer to determine the thymidine incorporation specifically due to reverse transcriptase activity. […]

HTLV-III/LAV [2] = assay: Inhibition of cytopathic effect (syncytial giant cell formation) in HTLV-III/LAV infected H9 cells; conditions: cytopathic effect (syncytial giant cell formation) on day 7 post infection 50% that in drug-free control cultures, read-out: CPE* 50% Inhibitory Concentrations
Procedure: as §1, §2
Syncytial giant cell formation appeared at 5-6 days post infection, and this cytopathic effect (CPE) was quantitatively measured by dispersing 0.1-ml aliquots into 0.1-ml portions of absolute methanol and enumerating the giant cells microscopically. The inhibition of cytopathic effect by treatment with representative compounds of the present invention is shown in the table, together with the inhibitory effect on reverse transcriptase activity.

uninfected H9 cells = conditions: human, 6 day
Procedure: as §1

| SMILES | IC50 (HTLV-III/LAV [1]) | IC50 (HTLV-III/LAV [2]) | IC50 (HTLV-III/LAV [1]; Human immunodeficiency virus 1, 240 h) | Cell Number*** 50% Inhibitory Concentrations (uninfected H9 cells) | IC50 (HTLV-III/LAV [2]; Human immunodeficiency virus 1, 168 h) |
| --- | --- | --- | --- | --- | --- |
| Nc1ncnc2c1ncn2[C@@H]1O[C@H](COP(=O)(O)O)[C@@H](O)[C@@H]1O [9-(β-D-arabinofuranosyl)adenine, 5′-phosphate] | 11 µM | 18 µM | – | – | – |
| Nc1ncnc2c1ncn2[C@@H]1O[C@H](CO)[C@@H](O)[C@@H]1O [9-(β-D-arabinofuranosyl)adenine] | – | – | 7 µM | >100 µM | 7 µM |
